PubChem BioAssay AID1963853 (Molecular Pharmacology Branch, DTP, NCI, 2024)

System: 266295-075-R-J1-PDC spheroid viability
Assay: Anticancer human tumor 266295-075-R-J1-PDC patient-derived head and neck squamous carcinoma cell line growth inhibition [POLQ]
Details: spheroids with HUVEC and MSC; for IC50: curve of first compound; for viability, T/C: stronger effect = lower value
Method: Multicellular complex tumor spheroid response to Polymerase (POL) inhibitors (novobiocin, ART-558, RP6685) in combination with a variety of drugs and investigational agents in selected tumor cell lines
The POL inhibitors (novobiocin, ART-558, and RP6685) were evaluated both individually and in combination with standard of care and investigational anticancer small molecules within a complex spheroid model of solid tumors. . Complex spheroids include a stromal component modeled by human endothelial cells (HUVEC) and fibroblasts modeled by human mesenchymal stem cells (MSCs). The concentration ranges selected for each drug and investigational agent were based upon clinically achievable concentrations if the clinical Cmax of the agent was known.
Compounds. The drugs and investigational agents: novobiocin (NSC847541), ART-558 (NSC835418), RP-6685 (NSC848927), peposertib (NSC802822), ceralasertib (NSC780249), elimusertib (NSC800525), camonsertib (NSC841442), AZD-1390 (NSC803789), olaparib (NSC753686), talazoparib (NSC767125), rucaparib (NSC756644), sotorasib (NSC818433), MRTX-1133 (NSC836407), SN-38 (NSC673596), topotecan (NSC609699), epotoside (NSC141540), doxorubicin (NSC123127), gemcitabine (NSC613327), 5-fluorouracil (NSC19893), paclitaxel (NSC125973), vemurafenib (NSC761431), MSA-2 (NSC828583), SN-011 (NSC837082), adavosertib (NSC754352), prexasertib (NSC758257), carboplatin (NSC241240) and oxaliplatin (NSC266046), were obtained from the National Cancer Institute (NCI) Developmental Therapeutics Program Chemical Repository (21). The FDA-approved anticancer drug set is available from the Developmental Therapeutics Program at https://dtp.cancer.gov/organization/dscb/obtaining/. […] The stock solutions were prepared in dimethyl sulfoxide (DMSO, Sigma-Aldrich, St. Louis, MO, cat. D2650), except for the platinum compounds which were prepared in saline (Quality Biological, Gaithersburg, MD, cat. 114-055-101), at 800-fold the tested concentration and stored at -70 degrees C prior to their use. All drugs and investigational agents were tested over a range starting from a high concentration at or near the clinical Cmax and decreasing in half-log increments. If the clinical Cmax for an agent had not been determined, the highest concentration tested was 10 microM, except for SN-38, which was tested at a high concentration of 1 microM.
Cell Culture. All cells were maintained in an incubator at 37 degrees C and 5% CO2 with 95% humidity. The PDC lines were cultured according to standard operating procedures established by the NCI PDMR (https://pdmr.cancer.gov). Table 3 of the manuscript, lists the cell lines along with the number of the three cell types plated to form the mct-spheroids and media for tumor cell growth. After thawing, all PDC lines, except 997537-175-T-J1-PDC and 415267-285-R-J2-PDC, were cultured in Matrigel-coated flasks prepared with a working solution of 1X Ham's F-12 nutrient mix, without supplementation (Thermo Fisher Scientific, cat. 11765054), 100 U/mL penicillin-streptomycin (Thermo Fisher Scientific, cat. 15140122), and 2.5% Matrigel (Corning Inc., Corning, NY, cat. 354248) for the first three passages. The two PDC lines 997537-175-T-J1-PDC and 415267-285-R-J2-PDC were cultured on uncoated flasks. The 857933-349-R-J2-PDC line was cultured in 6C/Colon 1B media containing advanced DMEM/F-12 (Thermo Fisher Scientific, cat. 12634028), 10 mM HEPES (Thermo Fisher Scientific, cat. 15630080), 1X GlutaMAX supplement (Thermo Fisher Scientific, cat. 35050061), 0.1 mg/mL primocin (InvivoGen, San Diego, CA, cat. ant-pm-2), 10% defined fetal bovine serum, heat inactivated (HyClone Laboratories Inc., Logan, UT, cat. SH30070.03HI), 50% L-WRN conditioned media (ATCC, cat. CRL-3276), 1.25 mM N-Acetyl-L-cysteine (Sigma-Aldrich, cat. A9165), 10 mM nicotinamide (Sigma-Aldrich, cat. N0636), 1X B-27 supplement (Thermo Fisher Scientific, cat. 17504044), 1X N-2 supplement (Thermo Fisher Scientific, cat. […]
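Note: spheroids exposed to compounds for seven days before readout.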

Question: What does the source list for `CC(=O)O[C@H]1C(=O)[C@@]2(C)[C@H]([C@H](OC(=O)c3ccccc3)[C@]3(O)C[C@H](OC(=O)[C@H](O)[C@@H](NC(=O)c4ccccc4)c4ccccc4)C(C)=C1C3(C)C)[C@]1(OC(C)=O)CO[C@@H]1C[C@@H]2O` + COC1C(OC(N)=O)C(O)C(Oc2ccc3c(O)c(NC(=O)c4ccc(O)c(CC=C(C)C)c4)c(=O)oc3c2C)OC1(C)C?
Answer: IC50 (second compound 0.0316 µM): > 3 µM; IC50 (second compound 0.1 µM): > 3 µM; IC50 (second compound 0.316 µM): > 3 µM; IC50 (second compound 1 µM): > 3 µM; IC50 (second compound 3.16 µM): > 3 µM; IC50 (second compound 10 µM): > 3 µM; viability, T/C (second compound 0.0316 µM, first compound 0.00949 µM): 79.5%; viability, T/C (second compound 0.0316 µM, first compound 0.03 µM): 69.1%; viability, T/C (second compound 0.0316 µM, first compound 0.0949 µM): 63.3%; viability, T/C (second compound 0.0316 µM, first compound 0.3 µM): 86.2%; viability, T/C (second compound 0.0316 µM, first compound 0.949 µM): 75.6%; viability, T/C (second compound 0.0316 µM, first compound 3 µM): 71.3%; viability, T/C (second compound 0.1 µM, first compound 0.00949 µM): 92.3%; viability, T/C (second compound 0.1 µM, first compound 0.03 µM): 79%; viability, T/C (second compound 0.1 µM, first compound 0.0949 µM): 61.2%; viability, T/C (second compound 0.1 µM, first compound 0.3 µM): 73.2%; viability, T/C (second compound 0.1 µM, first compound 0.949 µM): 78.1%; viability, T/C (second compound 0.1 µM, first compound 3 µM): 69%; viability, T/C (second compound 0.316 µM, first compound 0.00949 µM): 93.6%; viability, T/C (second compound 0.316 µM, first compound 0.03 µM): 73.4%; viability, T/C (second compound 0.316 µM, first compound 0.0949 µM): 66.5%; viability, T/C (second compound 0.316 µM, first compound 0.3 µM): 67.4%; viability, T/C (second compound 0.316 µM, first compound 0.949 µM): 72.1%; viability, T/C (second compound 0.316 µM, first compound 3 µM): 81.2%; viability, T/C (second compound 1 µM, first compound 0.00949 µM): 76.9%; viability, T/C (second compound 1 µM, first compound 0.03 µM): 70%; viability, T/C (second compound 1 µM, first compound 0.0949 µM): 67.8%; viability, T/C (second compound 1 µM, first compound 0.3 µM): 80.7%; viability, T/C (second compound 1 µM, first compound 0.949 µM): 77.3%; viability, T/C (second compound 1 µM, first compound 3 µM): 65%; viability, T/C (second compound 3.16 µM, first compound 0.00949 µM): 81.9%; viability, T/C (second compound 3.16 µM, first compound 0.03 µM): 83.6%; viability, T/C (second compound 3.16 µM, first compound 0.0949 µM): 62.5%; viability, T/C (second compound 3.16 µM, first compound 0.3 µM): 75.5%; viability, T/C (second compound 3.16 µM, first compound 0.949 µM): 71.3%; viability, T/C (second compound 3.16 µM, first compound 3 µM): 75.2%; viability, T/C (second compound 10 µM, first compound 0.00949 µM): 85.6%; viability, T/C (second compound 10 µM, first compound 0.03 µM): 72.3%; viability, T/C (second compound 10 µM, first compound 0.0949 µM): 62.8%; viability, T/C (second compound 10 µM, first compound 0.3 µM): 60.5%; viability, T/C (second compound 10 µM, first compound 0.949 µM): 75.5%; viability, T/C (second compound 10 µM, first compound 3 µM): 74.7%
